According to US20250177479A1, “DEPSIPEPTIDE-BASED AMPHIPHILIC BULIDING BLOCK TO INHIBIT PROTEIN-PROTEIN INTERACTIONS, NANOSTRUCTURE COMPRISED THEREOF AND USES THEREOF” (INDUSTRY-ACADEMIC COOPERATION FOUNDATION, YONSEI UNIVERSITY, priority 2023, published 2025):

Legend:
HCT116 p53+/+ cells = assay: WST-8 cell viability assay in HCT116 p53+/+ cells; format: cell-based, human; settings: 0, 5, 10, 15, 20 μM, 12 to 24 hours
Description: First, HCT116 p53^+/+ cells were cultured in a thermos-hygrostat incubator at 37° C., 5% CO2 in DMEM containing 10% FBS and 1% Pen-Step.
For a WST-8 cell viability assay, the HCT116 p53+/+ cells were seeded at a density of 2×10^4 cells/well in […] culture medium in a 96-well plate and cultured for 24 hours. […] After culturing at 37° C. for 12 to 24 hours, WST-8 reagent (Abcam Inc., UK) was added to each well, and culture was performed for 30 minutes. The absorbance at […] was measured using a microplate reader (PerkinElmer Inc., USA).

p53 = assay: Immunoblotting kinetic analysis of MDM2 and p53; format: cell-based, human; settings: 10 μM; HCT116 p53+/+ cells
Description: The cells were harvested, washed with cold PBS, and lysed with a radio-immunoprecipitation assay (RIPA) buffer. The cell lysate was centrifuged at 4° C. and 13,000 rpm for 20 minutes, and the supernatant was collected. The protein amount of the lysate was quantified using a bicinchoninic acid (BCA) protein assay kit (Pierce Inc., USA). The supernatant of the cell lysate was loaded on 10% sodium dodecyl sulfate-polyacrylamide gel electrophoresis (SDS-PAGE) to separate proteins, which were transferred to a polyvinylidene fluoride (PVDF) membrane, and the membrane was treated with 5% skim milk in tris-buffered saline with Tween® 20 (TBS-T) buffer (room temperature), and after one hour, washed with TBS-T buffer (2×) for one minute. After treatment with primary antibodies (specific primary antibodies) (p53, MDM2, or vinculin), the membrane was incubated overnight at 4° C. The membrane was washed with TBS-T for 10 minutes (5×), treated with horseradish peroxidase (HRP)-conjugated secondary antibodies (room temperature, 1 h), and then washed with TBS-T for 10 minutes (5×) and analyzed using a LAS 3000 luminescent image analyzer (Fujifilm Co., LTD., Japan).

HCT116 cells = assay: In vivo anticancer effect in HCT116 xenografted mice; settings: 76.9 nmol/100 μl saline i.v., once every two days, five times; 14 days
Description: Body weight and tumor volume of each group were measured every 0, 2, 4, 6, 8, 10, 12, and 14 days.

[1] = Biodistribution of Cy5.5-labeled SdPN in xenografted mice (fluorescence, IVIS)
Description: In order to verify the tumor specificity of the SdPN according to the present invention, an analysis was performed using a cancer animal model (xenograft) in which human cancer cells were cultured in immunodeficient mice. Specifically, a mixture of 50 mL of Matrigel (Corning, NY, USA) and HCT116 cells (5× 10^6 cells in 50 mL of saline) was subcutaneously injected into the hind legs of 5-week-old nu/nu male nude mice (nu/nu athymic). The tumor volume was analyzed using a caliper [tumor volume=(major axis)×(minor axis)^2/2]. […] At this time, the dose was 100 μl of saline injected at a concentration of 400 μM based on Cy5.5 (40 nmol/100 μl saline).
Fluorescence images were obtained at various times after the intravenous injection.
The isolated cancer tissues were treated with 4% paraformaldehyde, and their moisture content was assessed with sucrose.

[2] = 24 hours after i.v. administration, Cy5.5-labeled

Compound: COc1cc(C(=O)O)ccc1NC(=O)[C@@H]1N[C@@H](CC(C)(C)C)[C@](C#N)(c2ccc(Cl)cc2F)[C@H]1c1cccc(Cl)c1F [idasanutlin]
- viability of HCT116 p53+/+ cells (cancer cell apoptotic effect) (HCT116 p53+/+ cells): higher anticancer effect than that of the SdPN (6:4) of Example 8
- PPI inhibition action speed (p53): three
- cancer growth (HCT116 cells): significantly inhibited

Compound: sulfo-cyanine 5.5 [Cy5.5]
- localization to the cancer area (IVIS) ([1]; 40 nmol/100 μl saline i.v.): failed to be specifically localized to the cancer area
- removal over time (IVIS) ([1]; 40 nmol/100 μl saline i.v.): rapidly removed over time
- accumulation in cancer tissues (frozen sections) [1, 2]: no significant accumulation
- accumulation in major organs and cancer tissues (ex vivo fluorescence) [1, 2]: significant accumulation neither in major organ tissues nor cancer tissues
- fluorescence of tail vein blood over time (in vivo retention) ([1]; after i.v. administration, Cy5.5-labeled): completely eliminated within a short time
